Measurements taken from patent US9795650B2, “Romidepsin formulations and uses thereof” (Celgene Corporation, priority 2013, dated 2017).

Test: Solubility of romidepsin in solvents
Format: physicochemical
Text: In one embodiment, the romidepsin liquid concentrate for dilution is formulated in a solvent system. […] Solubility of romidepsin was studied in the following solvents and solvent mixtures: glycerin:EtOH (1:1); PEG 300; PEG 400; Tween 80:EtOH (1:1); dimethylacetamide (DMA); SolutolHS15:EtOH (1:1); NMP; Water; EtOH:PEG 400 (1:1); EtOH;water (4:6); EtOH; EtOH:PG (80:20); EtOH:PG (60:40); EtOH:PG (40:60); EtOH:PG (20:80); PG; EtOH:PG (40:60)+10% water; EtOH:PG (40:60)+butylated hydroxyanizole (BHA)/butylated hydroxytoluebe (BHT); and EtOH:PG (40:60)+ascorbic acid.

## C/C=C1\NC(=O)[C@H]2CSSCC/C=C/[C@H](CC(=O)N[C@H](C(C)C)C(=O)N2)OC(=O)[C@H](C(C)C)NC1=O [Romidepsin]
  Solubility in water: practically insoluble in water
